Measured values from patent publication US7495027B2, “3-aryl-4-hydroxyfuranone compounds and the human and animal health use thereof” (Wyeth, priority 2003, dated 2009).
≈ marks a conversion by molar mass, not a printed value. Where two headings read alike, the source gives them in different places.

Tests used:
[1] = target: E. coli UDP-N-acetylglucosamine enolpyruvoyl transferase, MurA (Escherichia coli, UniProt P0A749); assay: biochemical; settings: (E) E. coli enzyme
Outline: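 Compound in DMSO/water pre-incubated 10 min at 37° C with enzyme in 50 mM Tris/HCl pH 8.0, 5 mM DTT, 20% glycerol. After Tris/BME and assay buffer were added, OD340 was read at start. Reaction ran 1 hr at 37° C, then stop solution was added with 30 min colour development.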

[2] = target: E. coli Enopyruvyl-UPD-N-acetylglucosamine reductase, Mur B (Escherichia coli, UniProt P08373); assay: biochemical; settings: (E) E. coli enzyme; read-out: MurB IC50 (converted)
[3] = target: E. coli Uridine-diphosphate-N-acetvimuramoyl: L-alanine lipase, MurC (Escherichia coli, UniProt P17952); assay: Inhibitory activity against MurC (E. coli); type: biochemical; settings: (E) E. coli enzyme; read-out: MurC IC50 (converted)
[4] = target: E. coli Uridine-diphosphate-N-acetylmuramoyl-L-alanine: D-glutamate liease, MurD (Escherichia coli, UniProt P14900); assay: biochemical; settings: (E) E. coli enzyme
Outline: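 Final buffer 83 mM Tris/HCl pH 8.0, 50 mM MgCl2, 2 mM ATP. Compounds from 10 mg/mL DMSO stocks diluted to 100 μg/mL in 50 mM Tris/HCl pH 8.5 (working solution, not final assay level).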

staphylococci = assay: Minimum inhibitory concentration, microdilution broth method, staphylococci; type: cell-based; settings: Staphylococcus aureus, Mueller-Hinton broth, 18-22 hours at 35° C.
Outline: (§1)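 MIC by microdilution, NCCLS M7-A5. Media: MH broth (staph, enterococci); MH + 5% lysed horse blood (strep). Strains incl. methicillin-, penicillin- and/or vancomycin-resistant clinical isolates.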

enterococci = assay: Minimum inhibitory concentration, microdilution broth method, enterococci; type: cell-based; settings: Enterococcus faecalis, Mueller-Hinton broth, 18-22 hours at 35° C.
Outline: as §1

Streptococci = assay: Minimum inhibitory concentration, microdilution broth method, streptococci; type: cell-based; settings: S. pneumo GC 1894; Mueller-Hinton broth with 5% horse blood, 18-22 hours at 35° C.
Outline: as §1

[5] = target: T1, S. aureus Enopyruvyl-UPD-N-acetylglucosamine reductase, Mur B (Staphylococcus aureus, UniProt P61431); assay: biochemical; settings: (S) S. aureus enzyme; read-out: MurB IC50 (converted)
T1 sequence (P61431 1-307): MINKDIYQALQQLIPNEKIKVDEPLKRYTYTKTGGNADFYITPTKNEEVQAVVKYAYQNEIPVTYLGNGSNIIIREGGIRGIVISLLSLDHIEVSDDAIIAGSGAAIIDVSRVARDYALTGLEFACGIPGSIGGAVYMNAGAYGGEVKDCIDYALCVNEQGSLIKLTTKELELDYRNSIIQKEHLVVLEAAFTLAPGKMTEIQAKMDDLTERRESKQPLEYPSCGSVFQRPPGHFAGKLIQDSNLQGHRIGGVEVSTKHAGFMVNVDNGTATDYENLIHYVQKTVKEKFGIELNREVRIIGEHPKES

[6] = S. aureus GC 1131, read-out: MIC S. aureus GC 1131
[7] = S. aureus GC 4543, read-out: MIC S. aureus GC 4543
[8] = E. faecalis GC 2242, read-out: MIC E. faecalis GC 2242
[9] = E. faecalis GC 4555, read-out: MIC E. faecalis GC 4555

Chain of E. coli Enopyruvyl-UPD-N-acetylglucosamine reductase, Mur B (P08373 whole entry): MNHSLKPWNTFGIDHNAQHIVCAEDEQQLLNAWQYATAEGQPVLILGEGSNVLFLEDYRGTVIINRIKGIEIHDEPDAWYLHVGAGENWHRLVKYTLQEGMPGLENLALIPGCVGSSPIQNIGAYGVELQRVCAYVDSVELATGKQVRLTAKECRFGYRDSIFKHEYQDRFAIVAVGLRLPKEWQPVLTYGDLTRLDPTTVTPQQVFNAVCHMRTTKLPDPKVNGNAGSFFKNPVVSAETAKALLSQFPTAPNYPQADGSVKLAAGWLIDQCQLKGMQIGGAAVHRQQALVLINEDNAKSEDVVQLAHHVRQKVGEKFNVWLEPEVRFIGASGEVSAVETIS
Chain of E. coli Uridine-diphosphate-N-acetvimuramoyl: L-alanine lipase, MurC (P17952 whole entry): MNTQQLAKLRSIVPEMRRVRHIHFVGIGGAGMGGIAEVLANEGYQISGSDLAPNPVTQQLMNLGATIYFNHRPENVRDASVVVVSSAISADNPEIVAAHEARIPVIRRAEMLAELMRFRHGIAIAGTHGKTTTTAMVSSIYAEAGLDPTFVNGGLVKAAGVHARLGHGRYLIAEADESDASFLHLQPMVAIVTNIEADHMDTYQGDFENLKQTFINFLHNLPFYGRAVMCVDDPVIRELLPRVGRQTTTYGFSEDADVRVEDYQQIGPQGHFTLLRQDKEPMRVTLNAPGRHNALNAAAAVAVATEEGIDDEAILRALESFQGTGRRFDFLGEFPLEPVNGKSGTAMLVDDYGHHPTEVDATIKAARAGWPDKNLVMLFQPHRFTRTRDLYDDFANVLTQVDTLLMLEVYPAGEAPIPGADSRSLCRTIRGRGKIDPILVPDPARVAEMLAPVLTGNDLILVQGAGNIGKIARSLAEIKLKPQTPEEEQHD
Chain of E. coli Uridine-diphosphate-N-acetylmuramoyl-L-alanine: D-glutamate liease, MurD (P14900 whole entry): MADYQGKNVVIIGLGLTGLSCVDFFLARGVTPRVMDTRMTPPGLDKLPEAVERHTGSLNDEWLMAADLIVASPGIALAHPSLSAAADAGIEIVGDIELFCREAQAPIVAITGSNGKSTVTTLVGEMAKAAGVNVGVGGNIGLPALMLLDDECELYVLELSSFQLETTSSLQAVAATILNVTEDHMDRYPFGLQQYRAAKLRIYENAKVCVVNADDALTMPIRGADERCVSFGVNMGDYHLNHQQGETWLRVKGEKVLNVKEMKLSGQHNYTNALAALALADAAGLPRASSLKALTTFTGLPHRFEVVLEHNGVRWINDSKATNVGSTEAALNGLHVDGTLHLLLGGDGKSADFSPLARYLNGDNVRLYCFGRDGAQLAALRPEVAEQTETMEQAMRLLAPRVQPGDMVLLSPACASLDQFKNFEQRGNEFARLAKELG
Chain of E. coli UDP-N-acetylglucosamine enolpyruvoyl transferase, MurA (P0A749 whole entry): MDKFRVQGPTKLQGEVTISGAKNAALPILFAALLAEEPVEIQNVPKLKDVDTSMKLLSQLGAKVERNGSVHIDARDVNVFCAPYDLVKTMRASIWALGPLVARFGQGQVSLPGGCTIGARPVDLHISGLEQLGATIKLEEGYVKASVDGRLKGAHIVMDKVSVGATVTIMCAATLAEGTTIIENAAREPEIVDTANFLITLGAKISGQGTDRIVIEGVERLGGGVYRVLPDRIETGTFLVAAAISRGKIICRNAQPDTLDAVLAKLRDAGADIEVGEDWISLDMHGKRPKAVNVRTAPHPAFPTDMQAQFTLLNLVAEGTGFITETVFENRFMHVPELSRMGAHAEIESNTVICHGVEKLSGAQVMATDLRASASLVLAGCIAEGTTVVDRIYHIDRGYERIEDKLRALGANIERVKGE

Row | SMILES | IC50 [1] | IC50 [2] | IC50 [3] | IC50 [4] | MIC (staphylococci; [6]) | MIC (staphylococci; [7]) | MIC (enterococci; [8]) | MIC (enterococci; [9]) | MIC (Streptococci) | melting point | IC50 [5]
1 | COc1ccc(C2=C(O)/C(=C/c3ccc4ccccc4c3)OC2=O)cc1 [Example 7] | > 72.6 µM | 61 µM | 37.8 µM | > 72.6 µM | 32 mg/L (≈ 92.9 µM) | 64 mg/L (≈ 186 µM) | 32 mg/L (≈ 92.9 µM) | 64 mg/L (≈ 186 µM) | 2 mg/L (≈ 5.81 µM) | 257 to 258.5 °C | 
2 | O=C1O/C(=C\c2ccc3ccccc3c2)C(O)=C1c1ccc(-c2ccccc2)cc1 [Example 103] | > 64 µM | 15.4 µM | 41 µM | > 64 µM | > 128 mg/L | 64 mg/L (≈ 164 µM) | 32 mg/L (≈ 82 µM) | 64 mg/L (≈ 164 µM) | 0.5 mg/L (≈ 1.28 µM) | 266 to 270 °C | 
3 | COc1ccc(C2=C(O)/C(=C/c3cccc4ccccc34)OC2=O)cc1 [Example 6] | > 72.6 µM | > 72.6 µM | 46.5 µM | > 72.6 µM | 32 mg/L (≈ 92.9 µM) | 64 mg/L (≈ 186 µM) | 32 mg/L (≈ 92.9 µM) | > 128 mg/L | 8 mg/L (≈ 23.2 µM) |  | 61 µM
4 | Cc1ccc(/C=C2\OC(=O)C(c3ccc4ccccc4c3)=C2O)s1 [Example 41] | > 74.8 µM | > 74.8 µM | 38.9 µM | > 74.8 µM | 32 mg/L (≈ 95.7 µM) | 64 mg/L (≈ 191 µM) | 32 mg/L (≈ 95.7 µM) | 64 mg/L (≈ 191 µM) | 32 mg/L (≈ 95.7 µM) | 144 to 145 °C (dec.) | 
